From US20210046094A1, “COMPOSITIONS AND METHODS FOR TREATING PAIN” (THE UNITED STATES GOVERNMENT AS REPRESENTED BY THE …, priority 2018, published 2021)
Entries after “also recorded” stand apart in the source; their conditions may differ.

Columns and labels:
[1] = tested on: pCaMKII; assay: Astrocytic pCaMKII post-PNI (immunolabeling); assay type: in vivo, mouse; conditions: versus vehicle, n=3/group
[2] = tested on: experimental autoimmune encephalomyelitis; conditions: cited from earlier work
[3] = tested on: mice with peripheral nerve injury (PNI) by sciatic nerve cuffing; assay: Sciatic nerve cuff model: anxiety- and depression-like behaviors (open field, elevated plus maze, tail suspension); assay type: in vivo, mouse; conditions: WT mice; 10 μg/day intraperitoneal starting on day 21 after PNI
Experimental: ANXIETY-LIKE and DEPRESSION-LIKE BEHAVIORS are assessed only one time, they are administered during the 3 days preceding euthanasia, and the order in which tests are applied is from least stressful to more stressful (as listed below). We follow standard protocols, fully described in Yalcin et al (Yalcin et al., A time-dependent history of mood disorders in a murine model of neuropathic pain, Biol Psychiatry, 70:946-53, PMID 21890110 (2011)). Open field testing is employed for measuring locomotor activity and willingness to explore in mice. A computerized tracking system (ANY-Maze; Stoelting Co.) records animal movements and calculates speed, distance and other parameters. Time spent exploring the center of the open field is inversely related to anxiety. Elevated Plus Maze (Colbourn Instruments). Rodents naturally tend to explore novel environments, but open, well lit, elevated areas are perceived as aversive. This test is widely used in rodent models of anxiety. Tail suspension test (Harvard Apparatus), which measures immobility time, as well as energy and power in motion, is employed as a measure of depression-like behavior in rodents.

[4] = tested on: GFAP or SUR1; assay: Intrathecal infusion in uninjured, naive mouse: GFAP and SUR1 expression; assay type: in vivo
Description: Spinal cord-specific inhibition or downregulation of SUR1 in central glia. […] The anesthetized mouse is mounted in a stereotaxic apparatus, hair is clipped from the dorsal thoracolumbar region, and the skin is prepped with Betadine solution. Using microscopic visualization, a midline incision is made, the paraspinal muscles are dissected off of the spinous processes and laminae. The spinous processes of L6-S1 are removed using a high speed surgical drill, and the dura between them is punctured using a 27-g needle. The infusion cannula of a Brain infusion kit (30 gauge cannula; Brain Infusion kit 3) is advanced stereotactically 1 mm into the thecal sac and is secured to the spine with cement.

[5] = tested on: CCL2; assay: Quantitative immunohistochemistry of ipsilateral dorsal horn astrocytes after PNI: CCL2; assay type: in vivo, mouse
Description: (§1) Tissue analysis. Spinal cords are perfusion-fixed (4% PFA), cryoprotected and cryosectioned coronally (7 μm). The dorsal horns of L3-4, which innervates the plantar surface of the mouse hindpaw (Rigaud et al., Species and strain differences in rodent sciatic nerve anatomy: implications for studies of neuropathic pain, Pain, 136:188-201, PMID: 18316160 (2008)), are examined for markers of astrocyte activation (GFAP), Sur1-Trpm4 and IL-6, as well as the chemokines CCL2 and CXCL1. […]
(§2) Tissue analysis. […] The DRG and dorsal horns of L3-4, which innervate the plantar surface of the hindpaw (Rigaud et al., Species and strain differences in rodent sciatic nerve anatomy: implications for studies of neuropathic pain, Pain, 136:188-201, PMID 18316160 (2008)), are examined to quantify changes in, and the time course of those changes, for markers of astrocyte activation (GFAP), microglia/macrophage activation (Iba1, CD68), SUR1-TRPM4, IL-6, the chemokines, CCL2 and CXCL1 and their cognate receptors, CCR2 and CXCR2. Expression of these markers will be quantitatively compared in the different treatment groups using immunohistochemistry and in situ hybridization with cell-specific markers (GFAP, NeuN, Iba1, CD45). Quantitative comparisons will be validated using immunoblot and qPCR. […]

[6] = tested on: mice with peripheral nerve injury (PNI) by sciatic nerve cuffing; assay: Sciatic nerve cuff model: cold/thermal allodynia (acetone); assay type: in vivo, mouse; conditions: WT mice
Experimental: (§3) Sciatic nerve cuff model of neuropathic pain (Valcin et al. The sciatic nerve cuffing model of neuropathic pain in mice, J Vis Exp, PMID: 25078668 (2014)). Surgeries are performed under ketamine/xylazine anesthesia using aseptic techniques. The common branch of the right sciatic nerve is dissected and a 2 mm long section of pre-split PE-20 tubing is placed around it. Shams undergo the same surgery without cuffing.
Cold allodynia is assessed using acetone. A 10 μL volume of acetone is propelled via air burst from a 200 μL pipette onto the mid-plantar surface of the hind paw without touching the skin. Time spent elevating/licking/biting/shaking the stimulated paw, up to 15 sec, is measured with a stop watch. Each paw is stimulated 5×, allowing 5 min to elapse between successive paw stimulations.
THERMAL ALLODYNIA is assessed using acetone (Carey et al., Inflammatory and Neuropathic Nociception is Preserved in GPR55 Knockout Mice, Sci Rep, 7:944, PMID 28428628 (2017)). A 10 μL volume of acetone is propelled via air burst from a 200 μL pipette onto the mid-plantar surface of the hind paw without touching the skin. Time spent elevating/licking/biting/shaking the stimulated paw, up to 15 sec, is measured with a stop watch. Each paw is stimulated 5×, allowing 5 min to elapse between successive paw stimulations.

[7] = tested on: mice with peripheral nerve injury (PNI) by sciatic nerve cuffing; assay: Sciatic nerve cuff model of neuropathic pain: mechanical allodynia (von Frey filaments); assay type: in vivo, mouse
Description: WT mice underwent unilateral PNI by sciatic nerve cuffing, a widely accepted model of neuropathic pain in mice (Valcin et al. The sciatic nerve cuffing model of neuropathic pain in mice, J Vis Exp, PMID: 25078668 (2014)). Sciatic nerve cuffing reliably induces signs of chronic pain, including sustained mechanical and thermal allodynia. In this model, mechanical allodynia assessed using von Frey filaments develops within 1 week, and is sustained thereafter.
as §3
Mechanical hypersensitivity. The threshold for ipsi- and contralateral hindpaw withdrawal is determined using von Frey filaments (Chaplan et al., Quantitative assessment of tactile allodynia in the rat paw, J Neurosci Methods, 53:55-63, PMID: 7990513(1994)).Mice are placed in clear Plexiglas boxes on an elevated mesh screen.
Calibrated von Frey filaments are applied to the plantar surface of each hindpaw (0.16-15 gm). The “up-down method” (Chaplan et al., Quantitative assessment of tactile allodynia in the rat paw, J Neurosci Methods, 53:55-63, PMID: 7990513(1994)) is used to determine the withdrawal threshold.
MECHANICAL ALLODYNIA. The threshold for ipsi- and contralateral hindpaw withdrawal is determined using von Frey filaments. von Frey filaments are applied to the plantar surface of each hindpaw (0.16-4 gm). The “up-down method (Chaplan et al., Quantitative assessment of tactile allodynia in the rat paw, J Neurosci Methods, 53:55-63, PMID 7990513 (1994))” is used to determine the withdrawal threshold, as in our previous studies (Masri et al., Zona incerta: a role in central pain, J Neurophysiol, 102:181-91, PMID 19403748 (2009); Whitt et al., Pathological activity in mediodorsal thalamus of rats with spinal cord injury pain, J Neurosci, 33:3915-26, PMID 23447602 (2013)). Alternatively, the withdrawal threshold is determined using the Hugo Basile Dynamic Plantar Aesthesiometer (Stoelting).
On day 0, all mice underwent unilateral sciatic nerve cuffing, in which a 2 mm long section of pre-split PE-20 tubing is placed around the right sciatic nerve under sterile conditions (Yalcin et al., The sciatic nerve cuffing model of neuropathic pain in mice, J Vis Exp, PMID 25078668 (2014)).

[8] = infusion of an appropriate dose of injectable glibenclamide, non-diabetics; below hypoglycemic threshold; cited from earlier work
[9] = Normal mechanical or thermal sensitivity thresholds (non-sensitized condition); assay type: in vivo; conditions: non-sensitized condition (not shown)
[10] = tested on: mice with peripheral nerve injury (PNI) by sciatic nerve cuffing; assay: Sciatic nerve cuff model: thermal hyperalgesia (Hargreaves method); assay type: in vivo, mouse; conditions: adult male mice; intrathecal at lumbar 5, 5 ng/hour ×14 days from day +15; tested day +28
Experimental: THERMAL […] is assessed using the Hargreaves method, using a Hargreaves-type apparatus (Ugo Basile Plantar Test Instrument; Stoelting). An unrestrained animal is placed in a Perspex enclosure on the top of glass pane. An infrared generator placed below glass pane is aimed at the plantar surface of the hind paw and the time to withdrawal is recorded automatically via an optic sensor, avoiding experimental bias. Paw-withdrawal latency is calculated as the mean of 3-5 different measurements taken at 15 min intervals. […] On day 0, all mice underwent unilateral sciatic nerve cuffing, in which a 2 mm long section of pre-split PE-20 tubing is placed around the right sciatic nerve under sterile conditions (Yalcin et al., The sciatic nerve cuffing model of neuropathic pain in mice, J Vis Exp, PMID 25078668 (2014)).

[11] = administered via transdermal skin patch, preclinical; cited from earlier work
[12] = tested on: CXCL1; assay: Quantitative immunohistochemistry of ipsilateral dorsal horn astrocytes after PNI: CXCL1; assay type: in vivo, mouse
Description: as §1, §2

[13] = tested on: IL-6; assay: Quantitative immunohistochemistry of ipsilateral dorsal horn astrocytes after PNI: IL-6; assay type: in vivo, mouse
Description: as §1, §2

[14] = Example 1 mice (FIG. 2D), compared to vehicle-treated controls
[15] = mice from FIG. 10 (10 μg/day IP from day 21), tissues at day 49 (FIG. 6D)
[16] = WT mice, 10 μg/day intraperitoneal starting on day 21 after PNI

COc1ccc(Cl)cc1C(=O)NCCc1ccc(S(=O)(=O)NC(=O)NC2CCCCC2)cc1 [glibenclamide]
astrocytic pCaMKII [1]: increases | entry into spinal cord tissues ([2]; CNS inflammatory condition (EAE)): readily enters spinal cord tissues | inflammation ([2]; EAE spinal cord): ameliorates inflammation | anxiety behaviors (open field and elevated plus maze) [3]: significantly ameliorated | depression-like behaviors (tail suspension) [3]: significantly ameliorated | upregulation of GFAP or SUR1 [4]: does not upregulate GFAP or SUR1 | CCL2 in ipsilateral dorsal horn astrocytes [5, 14]: significant reduction | CCL2 in ipsilateral dorsal horn astrocytes [5, 15]: significant reductions | cold allodynia ([6]; 10 μg IP loading dose plus 40 ng/hr subcutaneous via mini-osmotic pump ×2 weeks, shortly after PNI): significant blunting | thermal allodynia ([6]; 10 μg/day intraperitoneal starting on day 21 after PNI): significantly ameliorated | mechanical allodynia ([7]; WT mice, 10 μg IP loading dose plus 40 ng/hr subcutaneous via mini-osmotic pump ×2 weeks, shortly after PNI): significant blunting | duration of drug treatment required for complete reversal of mechanical allodynia [7, 16]: 2-3 weeks | mechanical allodynia [7, 16]: significantly ameliorated; also recorded: gradual but complete reversal | allodynia symptoms (mechanical allodynia, FIG. 3C) ([7]; WT mice, treatment beginning on day 18 after PNI, after allodynia was well established): significant reversal | mechanical allodynia ([7]; adult male mice, intrathecal at lumbar 5, 5 ng/hour ×14 days from day +15, tested day +28): completely reversed | serum levels [8]: < 45 ng/mL | normal mechanical sensitivity thresholds [9]: does not modify | normal thermal sensitivity thresholds [9]: does not modify | thermal hyperalgesia [10]: completely reversed | plasma levels [11]: steady plasma levels of drug that can be maintained below the hypoglycemic threshold | CXCL1 in ipsilateral dorsal horn astrocytes [12, 14]: significant reduction | CXCL1 in ipsilateral dorsal horn astrocytes [12, 15]: significant reductions | IL-6 in ipsilateral dorsal horn astrocytes [13, 14]: significant reduction | IL-6 in ipsilateral dorsal horn astrocytes [13, 15]: significant reductions
